# Assay results as given in patent US20050033056A1, “Hydroxylated indole derivatives and uses thereof” (priority 2001, published 2005).
# Molecular target: CYP3A4 (Homo sapiens, UniProt P08684)
# Experiment: Compound 1 metabolism / metabolite formation by recombinant CYP3A4
# Format: in vitro ADME
# Design: purchased Gentest Corp. (Woburn, Mass.); host or cells: insect cells (microsomal preparation)
# Procedure: The metabolism of Compound 1 was determined by the disappearance of Compound 1 or the appearance of Compound 1 metabolites in reaction mixtures as compared to respective controls. Compound 1 was incubated in the reconstituted in vitro reaction systems containing pooled human liver S9 fractions, microsomal preparations, or recombinant hepatic CYP forms, including CYP1A2, CYP2C9, CYP2C19, CYP2D6, CYP2E1, and CYP3A4. The reaction mixture (total volume of 250 μL) contained 0.5 mg of liver microsomal protein, 50 or 25 pmol of recombinant CYP, and Compound 1 (50-80 μM) in 50 mM Tris buffer containing 15 mM MgCl2 (pH 7.4). After incubating at 37° C. with gentle shaking for 1 minute, the reaction was initiated by adding 25 μL of NADPH solution (20 mg/mL), and was carried out for 1 hour. The reaction was terminated by quickly cooling the test tube on ice, followed by the addition of an equal volume of 100% methanol. The samples were centrifuged in a desktop centrifuge at 14,000 rpm for 5 minutes, and the supernatants were filtered through syringe filters (13 mm, 0.45 μm). The filtrates were subjected to analysis using LC/MS (ion trap) or LC/MS/MS.
# 1. LC/MS (LCQ ion trap mass spectrometer, Finnigan Corp., San Jose, Calif.): Hewlett Packard 1100 HPLC system (Waldbronn, Germany) consisted of a binary pump, an autosampler, a column compartment unit, and an online variable wavelength UV detector (VWD). The detector was monitored at 270 nm, which is the UVmax of Compound 1 predetermined by scanning between 225-400 nm using a photodiode array detector (PDA). The metabolites were separated on a Hewlett Packard Eclipse C18 column (150×2.1 mm). The mobile phases were 10 nmM ammonium acetate at pH 4.8 (A) and acetonitrile (B). The gradient (B) was 10% (0-6 minutes), 22% (12-22 minutes), 90% (25-30 minutes), and 10% (31 minutes and after). The flow rate was 0.25 mL/minute. Software Navigator (Version 1.2, Finnigan Corp.) was used to control the HPLC and MS and to acquire the data. […]
# CYP3A4, sequence (P08684 whole entry): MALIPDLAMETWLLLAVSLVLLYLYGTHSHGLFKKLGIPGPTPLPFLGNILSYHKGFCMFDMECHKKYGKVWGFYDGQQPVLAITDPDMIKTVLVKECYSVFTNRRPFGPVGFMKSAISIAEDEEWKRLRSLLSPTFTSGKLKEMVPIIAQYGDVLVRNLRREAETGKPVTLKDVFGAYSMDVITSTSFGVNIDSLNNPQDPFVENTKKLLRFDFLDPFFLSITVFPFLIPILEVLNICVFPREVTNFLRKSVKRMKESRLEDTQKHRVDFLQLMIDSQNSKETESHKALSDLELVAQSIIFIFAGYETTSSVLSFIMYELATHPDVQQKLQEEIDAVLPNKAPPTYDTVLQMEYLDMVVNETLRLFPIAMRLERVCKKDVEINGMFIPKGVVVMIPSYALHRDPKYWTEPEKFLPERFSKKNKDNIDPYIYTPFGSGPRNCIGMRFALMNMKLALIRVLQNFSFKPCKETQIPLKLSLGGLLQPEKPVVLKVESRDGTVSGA
structure (smiles),measurement,setting,value
"CNC(=O)Cc1ccc2ccn(C3CCN(CCc4ccccc4F)CC3)c2c1 [Compound 1, N-methyl-[1-[1-(2-fluorophenethyl)piperidine-4-yl]-1H-indol-6-yl] acetamide]",metabolism of Compound 1 by CYP3A4 (in words),approximately 50 μM of Compound 1,metabolized
same,Rel. Amount (%),"recombinant CYP3A4, estimated by UV absorbance at 270 nm, metabolite formed or Compound 1 left after 1 hour with NADPH",23%
